The values below are quoted from earlier work in PubChem BioAssay AID1259410 (Chemical Carcinogenesis Research Information System (CCRIS), 2018).

For this data set, the system named is rodent tumor promotion studies, tumor incidence. The data set can be described thus: CCRIS tumor promotion studies. The note with it: Route [Promoter]: ORAL.

For `CCC1(c2ccccc2)C(=O)NC(=O)NC1=O`, the outcome is “liver: adenoma” (Carcinogen: DIMETHYLNITROSAMINE, 62-75-9, Doses [Carcinogen]: 5 UG/G ONCE, Doses [Promoter]: 0, 500 PPM IN THE DRINKING WATER FOR 24 WK BEGINNING POST CARCINOGEN DOSE (STUDY DURATION: 26 WK), Route [Carcinogen]: INTRAPERITONEAL, Species: MOUSE, Strain/Sex: B6C3F1/MALE); “thyroid: follicular cell adenoma or follicular cell carcinoma or c-cell tumor; l” (Carcinogen: METHYL(ACETOXYMETHYL)NITROSAMINE, 56856-83-8, Doses [Carcinogen]: 0.05 MMOL/KG IN 5 ML STERILE PHOSPHATE BUFFER ONCE, Doses [Promoter]: 0, 500 PPM IN DRINKING WATER BEGINNING 2 WK POST CARCINOGEN DOSE AND CONTINUING FOR 78 WK (STUDY DURATION: 80 WK), Route [Carcinogen]: INTRAPERITONEAL, Species: RAT, Strain/Sex: F344/MALE); “thyroid gland: adenocarcinoma” (Carcinogen: METHYLNITROSOUREA, Doses [Carcinogen]: 20 MG/KG 2/WK FOR 4 WK, Doses [Promoter]: 0.05% IN DIET FOR 32 WK, Route [Carcinogen]: INTRAPERITONEAL, Species: RAT, Strain/Sex: F344/MALE); “liver: hepatocellular adenoma” (Carcinogen: N,N-DIETHYLNITROSAMINE, 55-18-5, Doses [Carcinogen]: 75 MG/KG IN SALINE ONCE AT 5 WK OF AGE, Doses [Promoter]: 0, 500 PPM IN DIET FOR 45 WK BEGINNING 2 WK POST CARCINOGEN TREATMENT (STUDY DURATION: 47 WK), Route [Carcinogen]: INTRAPERITONEAL, Species: RAT, Strain/Sex: F344/MALE); “liver: hepatocellular adenoma” (Carcinogen: N,N-DIETHYLNITROSAMINE, 55-18-5, Doses [Carcinogen]: 75 MG/KG IN SALINE ONCE AT 5 WK OF AGE, Doses [Promoter]: 0, 500 PPM IN DIET FOR 46-72 WK BEGINNING 2 WK POST CARCINOGEN TREATMENT (STUDY DURATION: 46-72 WK), Route [Carcinogen]: INTRAPERITONEAL, Species: RAT, Strain/Sex: F344/MALE); “thyroid gland: follicular, papillary, and solid adenoma, carcinoma” (Carcinogen: N-BIS(2-HYDROXYPROPYL)NITROSAMINE, Doses [Carcinogen]: 70 MG/100 G BW 1/WK FOR 4 OR 6 WK, Doses [Promoter]: 500 PPM IN DIET FROM WK 5-16 OR 7-18, Route [Carcinogen]: SUBCUTANEOUS, Species: RAT, Strain/Sex: WISTAR/MALE). In addition, the outcome was “prostate/seminal vesicle: adenocarcinoma” (Carcinogen: N-METHYL-N-NITROSOUREA, 684-93-5, Doses [Carcinogen]: 30 MG/KG BW ONCE AT 3 MO OF AGE, Doses [Promoter]: 0, 50 MG/100 G IN DIET FOR 7 MO BEGINNING 7 MO POST CARCINOGEN DOSE (STUDY DURATION: 14 MO), Route [Carcinogen]: INTRAVENOUS, Species: RAT, Strain/Sex: LOBUND-WISTAR/MALE); “lung: carcinoma, prostate/seminal vesicles: tumor” (Carcinogen: N-METHYL-N-NITROSOUREA, 684-93-5, Doses [Carcinogen]: 30 MG/KG BW ONCE, Doses [Promoter]: 0, 0.5% IN DIET FOR DURATION OF STUDY BEGINNING POST CARCINOGEN DOSE(STUDY DURATION: 14 MO), Route [Carcinogen]: INTRAVENOUS, Species: RAT, Strain/Sex: LOBUND-WISTAR/MALE); “liver: hepatocellular adenoma” (Carcinogen: N-NITROSODIETHYLAMINE, 55-18-5, Doses [Carcinogen]: 5 UG/G BW ONCE AT 15 D OF AGE, Doses [Promoter]: 0, 500 PPM IN DRINKING WATER BEGINNING AT 4 WK OF AGE AND CONTINUING FOR DURATION OF STUDY (STUDY DURATION: 28 WK), Route [Carcinogen]: INTRAPERITONEAL, Species: MOUSE, Strain/Sex: C3H/HENCR/FEMALE); “liver: hepatocellular adenoma” (Carcinogen: N-NITROSODIETHYLAMINE, 55-18-5, Doses [Carcinogen]: 5 UG/G BW ONCE AT 15 D OF AGE, Doses [Promoter]: 0, 500 PPM IN DRINKING WATER BEGINNING AT 4 WK OF AGE AND CONTINUING FOR DURATION OF STUDY (STUDY DURATION: 28 WK), Route [Carcinogen]: INTRAPERITONEAL, Species: MOUSE, Strain/Sex: C3H/HENCR/MALE); “liver: hepatocellular adenoma or carcinoma; thyroid gland: follicular cell adeno” (Carcinogen: N-NITROSODIETHYLAMINE, 55-18-5, Doses [Carcinogen]: 75 MG IN STERILE SALINE ONCE, Doses [Promoter]: 0, 500 PPM IN DIET BEGINNING 2 WK POST CARCINOGEN DOSE AND CONTINUING FOR DURATION OF STUDY (STUDY DURATION: 78 WK), Route [Carcinogen]: INTRAPERITONEAL, Species: RAT, Strain/Sex: F344/MALE); “liver: hepatocellular adenoma” (Carcinogen: N-NITROSODIETHYLAMINE, 55-18-5, Doses [Carcinogen]: 75 MG ONCE, Doses [Promoter]: 0, 500 PPM IN DRINKING WATER BEGINNING 2 WK POST CARCINOGEN DOSE AND CONTINUING FOR DURATION OF STUDY (STUDY DURATION: 5, Route [Carcinogen]: INTRAPERITONEAL, Species: RAT, Strain/Sex: F344/MALE). Further, the outcome by setting is: (Carcinogen: N-NITROSODIETHYLAMINE, 55-18-5, Doses [Carcinogen]: 75 MG ONCE, Doses [Promoter]: 0, 500 PPM IN DRINKING WATER BEGINNING 2 WK POST CARCINOGEN DOSE AND CONTINUING FOR DURATION OF STUDY (STUDY DURATION: 7, Route [Carcinogen]: INTRAPERITONEAL, Species: RAT, Strain/Sex: F344/MALE) “liver: hepatocellular carcinoma; thyroid gland: follicular cell adenoma or adeno”; (Carcinogen: N-NITROSODIETHYLAMINE, 55-18-5, Doses [Carcinogen]: 90 MG/KG BW ONCE, Doses [Promoter]: 0, 500 PPM IN DIET FOR 53 WK BEGINNING 2 WK POST CARCINOGEN DOSE (STUDY DURATION: 55 WK), Route [Carcinogen]: INTRAPERITONEAL, Species: MOUSE, Strain/Sex: D2B6F1/MALE) “liver: hepatocellular adenoma, hepatocellular carcinoma, hepatoblastoma”; (Carcinogen: N-NITROSODIETHYLAMINE, 7119-92-8, Doses [Carcinogen]: 80 MG/KG ONCE, Doses [Promoter]: 0, 500 PPM IN DIET BEGINNING 1 WK POST CARCINOGEN DOSE AND CONTINUING FOR 168 D (STUDY DURATION: 259 D), Route [Carcinogen]: INTRAPERITONEAL, Species: MOUSE, Strain/Sex: B6C3F1/MALE) “liver: hepatocellular adenoma or carcinoma”; (Carcinogen: TAMOXIFEN, 10540-29-1, Doses [Carcinogen]: 420 PPM IN DIET FOR 3 MO, Doses [Promoter]: 0, 0.1% (W/V) IN DRINKING WATER FOR LIFE BEGINNING POST CARCINOGEN TREATMENT (STUDY DURATION: LIFETIME), Route [Carcinogen]: ORAL, Species: RAT, Strain/Sex: WISTAR/FEMALE) “liver: tumor”.
